Measurements from publication PMC5026167, “Characterizing Active Site Conformational Heterogeneity along the Trajectory of an Enzymatic Phosphoryl Transfer Reaction” (Angewandte Chemie (International Ed. in English), 2016).
Like-named read-outs stand apart in the source and are kept apart here.

Key:
[1] = biological target: T1, UmpK (UMP/CMP kinase) (Dictyostelium discoideum, UniProt P20425); experiment: stopped-flow nucleotide exchange with MANT-AP5A-MANT; format: binding; conditions: dissociation rate of ADP and UMP together, no metal fluoride
T1 construct: gene pyrK; recombinant, expressed and purified as in Supporting Information; details not in main text

[2] = biological target: T1, UmpK (UMP/CMP kinase); experiment: biochemical; parameters: fluorescence titration, equilibrium binding / displacement of fluorescent MANT-ADP
Source text: First, we defined and characterized stable states along the reaction coordinate (Supporting Information). One reference state is nucleotide‐free (apo) UmpK (Figure 1 a), where the catalytic side‐chains are expected to be very flexible because of the absence of any ligand, thus giving an indication of the upper limit of conformational entropy. An ideal reference for a substrate/product‐bound state is provided by UmpK in complex with the bi‐substrate inhibitor AP5U (Supporting Information; Figure 1 b), where a phosphate group covalently links ATP and UMP such that nucleotide‐like binding occurs but without turnover.11 The overall structure of UmpK in complex with AP5U is essentially identical to other nucleotide‐bound structures available (Figure 1 b). Despite minor differences in the lid loop conformation and the aliphatic part of the R137 side‐chain, the position of the central guanidino groups is nearly identical. […] The transition state of the phosphoryl transfer reaction is well‐represented by UmpK in complex with the TSA formed by ADP, UMP/CMP and an AlFx molecule that mimics the phosphoryl group being transferred (Figure 1 c).7 To further confirm the formation of a stable complex that captures the transition state structure, we performed functional studies including nucleotide exchange kinetics measurements in the presence and absence of aluminium fluoride (Figures 1 f and S1/S2, Table S1).  Figure 1 a) Nucleotide‐free UmpK (H. sapiens, PDB: 1TEV10). b) Overlay of UmpK in complex with the bi‐substrate inhibitor AP5U, (red, D. discoideum, PDB: 1UKE11), and in complex with ADP and CMP (orange, D. discoideum, PDB: 2UKD7). c) UmpK in complex with the TSA ADP:AlFx:CMP (D. discoideum, PDB: 3UKD7). In (a–c) arginine side‐chains are shown in yellow (numbering refers to UmpK from D. discoideum). d) Schematic representation of the reaction catalyzed by UmpK and the states studied here: nucleotide‐free (green), substrate/product‐bound (red), and the transition state (blue). e) AP5U binding to UmpK monitored by equilibrium displacement of fluorescent MANT‐ADP. Binding of AP5U (K D≤1.0 nM) generates a stable substrate/product‐like state. f) Nucleotide exchange kinetics measured by stopped flow. UmpK incubated with UMP and ADP in the presence of 0.5 mM AlFx (blue), 3 mM MgFx (grey) or in the absence of any fluoride (red) was mixed rapidly with the competing ligand MANT‐AP5A‐MANT. […] 3 Materials and Methods: 1. Mutagenesis, protein expression and purification: Arginine to lysine mutations were introduced into UmpK from Dictyostelium discoideum using the QuikChange® protocol. DNA sequencing was performed to verify the eight introduced mutations. Unlabeled [U-1 H,12C,14N] UmpK was expressed in LB medium, uniformly 15N-/ 13C-labeled [U-13C,15N] UmpK was expressed in M9 minimal medium using 2 g/L U-13C-glucose and 1 g/L 15NH4Cl as the sole carbon and nitrogen sources, respectively. Selectively labelled [13C,15N-Arg; U-12C,14N] UmpK and [13C,15N-Arg+Lys; U-12C,14N] UmpK with only (i) arginine residues or (ii) lysine and arginine residues isotopically labelled, respectively, were expressed in M9 minimal medium supplemented (i) 100 mg/L 15N-/ 13C-arginine or (ii) 100 mg/L 15N-/ 13C-arginine and 15N-/ 13C-lysine. All UmpK variants were purified as described previously using Blue Sepharose affinity chromatography and SourceQ anion exchange chromatography.

[3] = biological target: T1, UmpK (UMP/CMP kinase); experiment: biochemical; parameters: fluorescence titration of nucleotide binding to UmpK (MANT-ADP fluorescence / displacement); conditions: Mg-free
Source text: First, we defined and characterized stable states along the reaction coordinate (Supporting Information). One reference state is nucleotide‐free (apo) UmpK (Figure 1 a), where the catalytic side‐chains are expected to be very flexible because of the absence of any ligand, thus giving an indication of the upper limit of conformational entropy. An ideal reference for a substrate/product‐bound state is provided by UmpK in complex with the bi‐substrate inhibitor AP5U (Supporting Information; Figure 1 b), where a phosphate group covalently links ATP and UMP such that nucleotide‐like binding occurs but without turnover.11 The overall structure of UmpK in complex with AP5U is essentially identical to other nucleotide‐bound structures available (Figure 1 b). Despite minor differences in the lid loop conformation and the aliphatic part of the R137 side‐chain, the position of the central guanidino groups is nearly identical. […] The transition state of the phosphoryl transfer reaction is well‐represented by UmpK in complex with the TSA formed by ADP, UMP/CMP and an AlFx molecule that mimics the phosphoryl group being transferred (Figure 1 c).7 To further confirm the formation of a stable complex that captures the transition state structure, we performed functional studies including nucleotide exchange kinetics measurements in the presence and absence of aluminium fluoride (Figures 1 f and S1/S2, Table S1).  Figure 1 a) Nucleotide‐free UmpK (H. sapiens, PDB: 1TEV10). b) Overlay of UmpK in complex with the bi‐substrate inhibitor AP5U, (red, D. discoideum, PDB: 1UKE11), and in complex with ADP and CMP (orange, D. discoideum, PDB: 2UKD7). c) UmpK in complex with the TSA ADP:AlFx:CMP (D. discoideum, PDB: 3UKD7). In (a–c) arginine side‐chains are shown in yellow (numbering refers to UmpK from D. discoideum). d) Schematic representation of the reaction catalyzed by UmpK and the states studied here: nucleotide‐free (green), substrate/product‐bound (red), and the transition state (blue). e) AP5U binding to UmpK monitored by equilibrium displacement of fluorescent MANT‐ADP. Binding of AP5U (K D≤1.0 nM) generates a stable substrate/product‐like state. f) Nucleotide exchange kinetics measured by stopped flow. UmpK incubated with UMP and ADP in the presence of 0.5 mM AlFx (blue), 3 mM MgFx (grey) or in the absence of any fluoride (red) was mixed rapidly with the competing ligand MANT‐AP5A‐MANT.

[4] = 5 mM MgCl2, alone, read-out: UmpK wild-type (5 mM MgCl2) Alone
[5] = with CMP, 5 mM MgCl2, 250 uM second nucleotide present, read-out: UmpK wild-type (5 mM MgCl2) in the presence of 250 uM second nucleotide
[6] = with ADP, 5 mM MgCl2, 250 uM second nucleotide present, read-out: UmpK wild-type (5 mM MgCl2) in the presence of 250 uM second nucleotide
[7] = with 250 uM ADP, read-out: wild-type (Mg-free) in presence of 250 uM ADP

T1 sequence (P20425 whole entry): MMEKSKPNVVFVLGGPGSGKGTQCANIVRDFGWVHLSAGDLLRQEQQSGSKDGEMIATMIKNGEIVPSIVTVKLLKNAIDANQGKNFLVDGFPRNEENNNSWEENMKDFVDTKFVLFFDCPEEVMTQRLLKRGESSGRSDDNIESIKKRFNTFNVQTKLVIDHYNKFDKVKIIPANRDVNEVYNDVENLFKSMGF

Structure (SMILES) | k fast ([1]; UMP present) | Kd [2, 4] [µM] | Kd [2, 5] [µM] | Kd ([3]; with 250 uM CDP, read-out: wild-type (Mg-free) in presence of 250 uM CDP) [µM] | Kd ([3]; with 250 uM CMP, read-out: wild-type (Mg-free) in presence of 250 uM CMP) [µM] | Kd [2, 6] [µM] | Kd [3, 7] [µM] | k fast ([1]; ADP present)
Nc1ncnc2c1ncn2[C@@H]1O[C@H](COP(=O)(O)OP(=O)(O)O)[C@@H](O)[C@H]1O [ADP] | ~ 60 s^-1 | 80 ± 2 | 10 ± 1 | 49 ± 0.5 | – | – | – | –
Nc1ncnc2c1ncn2[C@@H]1O[C@H](COP(=O)(O)OP(=O)(O)OP(=O)(O)O)[C@@H](O)[C@H]1O [ATP] | – | 51 ± 2 | 7.3 ± 0.4 | – | 68 ± 3 | – | – | –
Nc1ccn([C@@H]2O[C@H](COP(=O)(O)OP(=O)(O)O)[C@@H](O)[C@H]2O)c(=O)n1 [CDP] | – | 66 ± 11 | – | – | – | 17 ± 3 | 64 ± 6 | –

Further lines, results first:

k fast ([1]; UMP present) | Kd [2, 4] [µM] | Kd [2, 5] [µM] | Kd ([3]; with 250 uM CDP, read-out: wild-type (Mg-free) in presence of 250 uM CDP) [µM] | Kd ([3]; with 250 uM CMP, read-out: wild-type (Mg-free) in presence of 250 uM CMP) [µM] | Kd [2, 6] [µM] | Kd [3, 7] [µM] | k fast ([1]; ADP present) | Structure (SMILES)
– | 77 ± 11 | – | – | – | 23 ± 3 | 205 ± 20 | – | Nc1ccn([C@@H]2O[C@H](COP(=O)(O)O)[C@@H](O)[C@H]2O)c(=O)n1 [CMP]
– | 600 ± 70 | – | – | – | 60 ± 14 | 400 ± 45 | – | O=c1ccn([C@@H]2O[C@H](COP(=O)(O)OP(=O)(O)O)[C@@H](O)[C@H]2O)c(=O)[nH]1 [UDP]
– | – | – | – | – | – | – | ~ 60 s^-1 | O=c1ccn([C@@H]2O[C@H](COP(=O)(O)O)[C@@H](O)[C@H]2O)c(=O)[nH]1 [UMP]
